Experimental data published in article PMC7211202 (Investigational New Drugs, 2019).

Assay: Patient incidence of adverse events (CTCAE version 4.0)
Type: in vivo
Settings: 240-mg dose expansion
Description: Each patient was monitored for 21 days for the occurrence of dose-limiting toxicities (DLTs), defined as febrile neutropenia, neutropenic infection, grade 4 neutropenia lasting >7 days, grade ≥ 3 thrombocytopenia lasting >7 days (solid tumors only), grade 3 thrombocytopenia with grade ≥ 2 bleeding (solid tumors only), grade 3 or 4 thrombocytopenia with grade > 1 bleeding (multiple myeloma only), grade 4 thrombocytopenia (solid tumors only), or grade 4 thrombocytopenia lasting >14 days (multiple myeloma only), or as grade ≥ 3 nausea, vomiting, or diarrhea after support; grade 3 fatigue lasting >7 days; any other grade ≥ 3 adverse event (AE); grade ≥ 3 kidney injury (multiple myeloma only), or treatment-related AEs not returning to grade ≤ 1 (solid tumors only) per Common Terminology Criteria for Adverse Events (CTCAE), version 4.0. The MTD was defined as the maximum dose, at which the probability of a DLT was ≤25% in Part 1A and ≤ 33% in Parts 1B and 1C. Treatment continued until disease progression, intolerable toxicity, or withdrawal of consent.
AEs were recorded for all enrolled patients.

SMILES: CC(C)[C@@H](CS(=O)(=O)C(C)C)N1C(=O)[C@@](C)(CC(=O)O)C[C@H](c2cccc(Cl)c2)[C@H]1c1ccc(Cl)cc1 [AMG 232]
- AE resulting in treatment discontinuation: fatigue: 2 n
- AE resulting in treatment discontinuation: vomiting: 4 n
- Patients with AEs resulting in treatment discontinuation: 13 (19%) n (%)
- Patients with any serious, treatment-related AE (DDLPS (n = 10)): 0 n (%)
- Patients with any treatment-emergent AE (DDLPS (n = 10)): 9 (90) n (%)
- Patients with any treatment-emergent serious AE (DDLPS (n = 10)): 4 (40) n (%)
- Patients with any treatment-related AE (DDLPS (n = 10)): 9 (90) n (%)
- Patients with any treatment-related AE, Grade 3 (DDLPS (n = 10)): 0 n (%)
- Patients with any treatment-related AE, Grade 4 (DDLPS (n = 10)): 0 n (%)
- Patients with any treatment-related AE, Grade 5 (DDLPS (n = 10)): 0 n (%)
- Serious, treatment-related AE: Dehydration (grade 3) (DDLPS (n = 10)): 0 n (%)
- Serious, treatment-related AE: Diarrhea (grade 3) (DDLPS (n = 10)): 0 n (%)
- Serious, treatment-related AE: Hyperamylasemia (grade 3) (DDLPS (n = 10)): 0 n (%)
- Serious, treatment-related AE: Hyperlipasemia (grade 3) (DDLPS (n = 10)): 0 n (%)
- Serious, treatment-related AE: Nausea (grade 3) (DDLPS (n = 10)): 0 n (%)
- Serious, treatment-related AE: Pulmonary embolism (grade 3) (DDLPS (n = 10)): 0 n (%)
- Serious, treatment-related AE: Vomiting (grade 3) (DDLPS (n = 10)): 0 n (%)
- Treatment-related AE: Anemia (DDLPS (n = 10)): 0 n (%)
- Treatment-related AE: Asthenia (DDLPS (n = 10)): 1 (10) n (%)
- Treatment-related AE: Decrease appetite (DDLPS (n = 10)): 4 (40) n (%)
- Treatment-related AE: Diarrhea (DDLPS (n = 10)): 6 (60) n (%)
- Treatment-related AE: Dysgeusia (DDLPS (n = 10)): 1 (10) n (%)
- Treatment-related AE: Fatigue (DDLPS (n = 10)): 7 (70) n (%)
- Treatment-related AE: Nausea (DDLPS (n = 10)): 8 (80) n (%)
- Treatment-related AE: Neutropenia (DDLPS (n = 10)): 0 n (%)
- Treatment-related AE: Thrombocytopenia (DDLPS (n = 10)): 1 (10) n (%)
- Treatment-related AE: Vomiting (DDLPS (n = 10)): 2 (20) n (%)
- Patients with any serious, treatment-related AE (ER + PR+ Breast (n = 8)): 2 (25) n (%)
- Patients with any treatment-emergent AE (ER + PR+ Breast (n = 8)): 8 (100) n (%)
- Patients with any treatment-emergent serious AE (ER + PR+ Breast (n = 8)): 3 (38) n (%)
- Patients with any treatment-related AE (ER + PR+ Breast (n = 8)): 8 (100) n (%)
- Patients with any treatment-related AE, Grade 3 (ER + PR+ Breast (n = 8)): 4 (50) n (%)
- Patients with any treatment-related AE, Grade 4 (ER + PR+ Breast (n = 8)): 0 n (%)
- Patients with any treatment-related AE, Grade 5 (ER + PR+ Breast (n = 8)): 0 n (%)
- Serious, treatment-related AE: Dehydration (grade 3) (ER + PR+ Breast (n = 8)): 0 n (%)
- Serious, treatment-related AE: Diarrhea (grade 3) (ER + PR+ Breast (n = 8)): 1 (13) n (%)
- Serious, treatment-related AE: Hyperamylasemia (grade 3) (ER + PR+ Breast (n = 8)): 0 n (%)
- Serious, treatment-related AE: Hyperlipasemia (grade 3) (ER + PR+ Breast (n = 8)): 0 n (%)
- Serious, treatment-related AE: Nausea (grade 3) (ER + PR+ Breast (n = 8)): 1 (13) n (%)
- Serious, treatment-related AE: Pulmonary embolism (grade 3) (ER + PR+ Breast (n = 8)): 0 n (%)
- Serious, treatment-related AE: Vomiting (grade 3) (ER + PR+ Breast (n = 8)): 1 (13) n (%)
- Treatment-related AE: Anemia (ER + PR+ Breast (n = 8)): 0 n (%)
- Treatment-related AE: Asthenia (ER + PR+ Breast (n = 8)): 1 (13) n (%)
- Treatment-related AE: Decrease appetite (ER + PR+ Breast (n = 8)): 5 (63) n (%)
- Treatment-related AE: Diarrhea (ER + PR+ Breast (n = 8)): 7 (88) n (%)
- Treatment-related AE: Dysgeusia (ER + PR+ Breast (n = 8)): 2 (25) n (%)
- Treatment-related AE: Fatigue (ER + PR+ Breast (n = 8)): 3 (38) n (%)
- Treatment-related AE: Nausea (ER + PR+ Breast (n = 8)): 6 (75) n (%)
- Treatment-related AE: Neutropenia (ER + PR+ Breast (n = 8)): 0 n (%)
- Treatment-related AE: Thrombocytopenia (ER + PR+ Breast (n = 8)): 0 n (%)
- Treatment-related AE: Vomiting (ER + PR+ Breast (n = 8)): 6 (75) n (%)
- Patients with any serious, treatment-related AE (ER + PR–Breast (n = 4)): 0 n (%)
- Patients with any treatment-emergent AE (ER + PR–Breast (n = 4)): 4 (100) n (%)
- Patients with any treatment-emergent serious AE (ER + PR–Breast (n = 4)): 1 (25) n (%)
- Patients with any treatment-related AE (ER + PR–Breast (n = 4)): 4 (100) n (%)
- Patients with any treatment-related AE, Grade 3 (ER + PR–Breast (n = 4)): 1 (25) n (%)
- Patients with any treatment-related AE, Grade 4 (ER + PR–Breast (n = 4)): 0 n (%)
- Patients with any treatment-related AE, Grade 5 (ER + PR–Breast (n = 4)): 0 n (%)
- Serious, treatment-related AE: Dehydration (grade 3) (ER + PR–Breast (n = 4)): 0 n (%)
- Serious, treatment-related AE: Diarrhea (grade 3) (ER + PR–Breast (n = 4)): 0 n (%)
- Serious, treatment-related AE: Hyperamylasemia (grade 3) (ER + PR–Breast (n = 4)): 0 n (%)
- Serious, treatment-related AE: Hyperlipasemia (grade 3) (ER + PR–Breast (n = 4)): 0 n (%)
- Serious, treatment-related AE: Nausea (grade 3) (ER + PR–Breast (n = 4)): 0 n (%)
- Serious, treatment-related AE: Pulmonary embolism (grade 3) (ER + PR–Breast (n = 4)): 0 n (%)
- Serious, treatment-related AE: Vomiting (grade 3) (ER + PR–Breast (n = 4)): 0 n (%)
- Treatment-related AE: Anemia (ER + PR–Breast (n = 4)): 1 (25) n (%)
- Treatment-related AE: Asthenia (ER + PR–Breast (n = 4)): 1 (25) n (%)
- Treatment-related AE: Decrease appetite (ER + PR–Breast (n = 4)): 3 (75) n (%)
- Treatment-related AE: Diarrhea (ER + PR–Breast (n = 4)): 4 (100) n (%)
- Treatment-related AE: Dysgeusia (ER + PR–Breast (n = 4)): 0 n (%)
- Treatment-related AE: Fatigue (ER + PR–Breast (n = 4)): 0 n (%)
- Treatment-related AE: Nausea (ER + PR–Breast (n = 4)): 3 (75) n (%)
- Treatment-related AE: Neutropenia (ER + PR–Breast (n = 4)): 0 n (%)
- Treatment-related AE: Thrombocytopenia (ER + PR–Breast (n = 4)): 0 n (%)
- Treatment-related AE: Vomiting (ER + PR–Breast (n = 4)): 2 (50) n (%)
- Patients with any serious, treatment-related AE (GBM (n = 10)): 1 (10) n (%)
- Patients with any treatment-emergent AE (GBM (n = 10)): 10 (100) n (%)
- Patients with any treatment-emergent serious AE (GBM (n = 10)): 7 (70) n (%)
- Patients with any treatment-related AE (GBM (n = 10)): 10 (100) n (%)
- Patients with any treatment-related AE, Grade 3 (GBM (n = 10)): 4 (40) n (%)
- Patients with any treatment-related AE, Grade 4 (GBM (n = 10)): 0 n (%)
- Patients with any treatment-related AE, Grade 5 (GBM (n = 10)): 0 n (%)
- Serious, treatment-related AE: Dehydration (grade 3) (GBM (n = 10)): 0 n (%)
- Serious, treatment-related AE: Diarrhea (grade 3) (GBM (n = 10)): 0 n (%)
- Serious, treatment-related AE: Hyperamylasemia (grade 3) (GBM (n = 10)): 1 (10) n (%)
- Serious, treatment-related AE: Hyperlipasemia (grade 3) (GBM (n = 10)): 1 (10) n (%)
- Serious, treatment-related AE: Nausea (grade 3) (GBM (n = 10)): 0 n (%)
- Serious, treatment-related AE: Pulmonary embolism (grade 3) (GBM (n = 10)): 0 n (%)
- Serious, treatment-related AE: Vomiting (grade 3) (GBM (n = 10)): 0 n (%)
- Treatment-related AE: Anemia (GBM (n = 10)): 0 n (%)
- Treatment-related AE: Asthenia (GBM (n = 10)): 0 n (%)
- Treatment-related AE: Decrease appetite (GBM (n = 10)): 1 (10) n (%)
- Treatment-related AE: Diarrhea (GBM (n = 10)): 5 (50) n (%)
- Treatment-related AE: Dysgeusia (GBM (n = 10)): 1 (10) n (%)
- Treatment-related AE: Fatigue (GBM (n = 10)): 6 (60) n (%)
- Treatment-related AE: Nausea (GBM (n = 10)): 4 (40) n (%)
- Treatment-related AE: Neutropenia (GBM (n = 10)): 2 (20) n (%)
- Treatment-related AE: Thrombocytopenia (GBM (n = 10)): 2 (20) n (%)
- Treatment-related AE: Vomiting (GBM (n = 10)): 3 (30) n (%)
- Patients with any serious, treatment-related AE (Multiple Myeloma (n = 10)): 2 (20) n (%)
- Patients with any treatment-emergent AE (Multiple Myeloma (n = 10)): 10 (100) n (%)
- Patients with any treatment-emergent serious AE (Multiple Myeloma (n = 10)): 4 (40) n (%)
- Patients with any treatment-related AE (Multiple Myeloma (n = 10)): 10 (100) n (%)
- Patients with any treatment-related AE, Grade 3 (Multiple Myeloma (n = 10)): 6 (60) n (%)
- Patients with any treatment-related AE, Grade 4 (Multiple Myeloma (n = 10)): 3 (30) n (%)
- Patients with any treatment-related AE, Grade 5 (Multiple Myeloma (n = 10)): 0 n (%)
- Serious, treatment-related AE: Dehydration (grade 3) (Multiple Myeloma (n = 10)): 0 n (%)
- Serious, treatment-related AE: Diarrhea (grade 3) (Multiple Myeloma (n = 10)): 0 n (%)
- Serious, treatment-related AE: Hyperamylasemia (grade 3) (Multiple Myeloma (n = 10)): 0 n (%)
- Serious, treatment-related AE: Hyperlipasemia (grade 3) (Multiple Myeloma (n = 10)): 0 n (%)
- Serious, treatment-related AE: Nausea (grade 3) (Multiple Myeloma (n = 10)): 0 n (%)
- Serious, treatment-related AE: Pulmonary embolism (grade 3) (Multiple Myeloma (n = 10)): 0 n (%)
- Serious, treatment-related AE: Vomiting (grade 3) (Multiple Myeloma (n = 10)): 2 (20) n (%)
- Treatment-related AE: Anemia (Multiple Myeloma (n = 10)): 1 (10) n (%)
- Treatment-related AE: Asthenia (Multiple Myeloma (n = 10)): 4 (40) n (%)
- Treatment-related AE: Decrease appetite (Multiple Myeloma (n = 10)): 4 (40) n (%)
- Treatment-related AE: Diarrhea (Multiple Myeloma (n = 10)): 7 (70) n (%)
- Treatment-related AE: Dysgeusia (Multiple Myeloma (n = 10)): 2 (20) n (%)
- Treatment-related AE: Fatigue (Multiple Myeloma (n = 10)): 2 (20) n (%)
- Treatment-related AE: Nausea (Multiple Myeloma (n = 10)): 4 (40) n (%)
- Treatment-related AE: Neutropenia (Multiple Myeloma (n = 10)): 3 (30) n (%)
- Treatment-related AE: Thrombocytopenia (Multiple Myeloma (n = 10)): 3 (30) n (%)
- Treatment-related AE: Vomiting (Multiple Myeloma (n = 10)): 4 (40) n (%)
- Patients with any serious, treatment-related AE (Other Solid (n = 16)): 0 n (%)
- Patients with any treatment-emergent AE (Other Solid (n = 16)): 16 (100) n (%)
- Patients with any treatment-emergent serious AE (Other Solid (n = 16)): 5 (31) n (%)
- Patients with any treatment-related AE (Other Solid (n = 16)): 14 (88) n (%)
- Patients with any treatment-related AE, Grade 3 (Other Solid (n = 16)): 4 (25) n (%)
- Patients with any treatment-related AE, Grade 4 (Other Solid (n = 16)): 2 (13) n (%)
- Patients with any treatment-related AE, Grade 5 (Other Solid (n = 16)): 0 n (%)
- Serious, treatment-related AE: Dehydration (grade 3) (Other Solid (n = 16)): 0 n (%)
- Serious, treatment-related AE: Diarrhea (grade 3) (Other Solid (n = 16)): 0 n (%)
- Serious, treatment-related AE: Hyperamylasemia (grade 3) (Other Solid (n = 16)): 0 n (%)
